Data taken from patent publication US9732075B2, “Benzimidazole-proline derivatives” (IDORSIA PHARMACEUTICALS LTD, priority 2012, dated 2017).

Tests used:
rodents [1] = conditions: cited from earlier work
rodents [2] = conditions: repeated amphetamine administration; cited from earlier work
Wistar rats = test: Sedative effects: EEG, EMG and behavioural indices of alertness recorded by radiotelemetry in vivo; conditions: 30 mg/kg po; effects analyzed over 6 hours; compared to vehicle controls
Method: Sedative Effects: EEG, EMG and Behavioural Indices of Alertness Recorded by Radiotelemetry In Vivo in Wistar Rats.
Electroencephalography (EEG) and Electromyography (EMG) signals were measured by telemetry using TL11M2-F20-EET miniature radiotelemetric implants (Data Science Int.) with two pairs of differential leads.
Surgical implantation was performed under general anesthesia with Ketamin/Xylazin, for cranial placement of one differential pair of EEG electrodes and one pair of EMG leads inserted in either side of the muscles of the neck. After surgery, rats recovered in a thermoregulated chamber and received analgesic treatment with subcutaneous buprenorphine twice a day for 2 d. They were then housed individually and allowed to recover for a minimum of 2 weeks. Thereafter, rats—in their home cage—were placed in a ventilated sound-attenuating box, on a 12-h light/12-h dark cycle, for acclimatization before continuous EEG/EMG recordings started. The telemetric technology that we used in this study allows accurate and stress-free acquisition of biosignals in rats placed in their familiar home cage environment, with no recording leads restricting their movements. Variables analyzed included four different stages of vigilance and sleep, spontaneous activity in the home cage and body temperature. Sleep and wake stages were evaluated using a rodent scoring software (Somnologica Science) directly processing electrical biosignals on 10 s contiguous epochs. The scoring is based on frequency estimation for EEG and amplitude discrimination for EMG and locomotor activity. Using these measurements, the software determines the probability that all components within each epoch best represent active waking (AW), quiet waking (QW), non-REM-sleep (NREM) or REM-sleep (REM). The percentage of total time spent in AW, QW, NREM- and REM-sleep was calculated per 12 h light or dark period. The latency to the onset of the first significant NREM- and REM-sleep episodes and the frequency and duration of those episodes were also calculated. AW, QW, NREM- and REM-sleep, home cage activity and body temperature were measured at baseline for at least one total circadian cycle (12 h-night, 12 h-day) before a test compound was administered. […] All variables were subsequently recorded for 12 h following administration of the orexin receptor antagonist.

[3] = Measurement of brain and systemic concentration after oral administration; assay type: in vivo; conditions: 3 h after oral administration (100 mg/kg), male wistar rats, n=3
Method: Measurement of Brain and Systemic Concentration after Oral Administration:
In order to assess brain penetration, the concentration of the compound is measured in plasma ([P]), and brain ([B]), sampled 3 h (or at different time points) following oral administration (e.g. 100 mg/kg) to male wistar rats. The compounds are formulated e.g. in 100% PEG 400. Samples are collected in the same animal at the same time point (+/−5 min).
Blood is sampled from the vena cava caudalis into containers with EDTA as anticoagulant and centrifuged to yield plasma. Brain is sampled after cardiac perfusion of 10 mL NaCl 0.9% and homogenized into one volume of cold phosphate buffer (pH 7.4). All samples are extracted with MeOH and analyzed by LC-MS/MS. Concentrations are determined with the help of calibration curves.

rat [4] = conditions: cited from earlier work
[5] = test system: amyloid precursor protein transgenic mice; conditions: after acute sleep restriction; cited from earlier work
rats [6] = conditions: fasted hungry rats exposed to food odors; cited from earlier work
humans = conditions: cited from earlier work
mouse = conditions: administered chronically; cited from earlier work
rats [7] = conditions: cited from earlier work
rats [8] = conditions: rats treated with the compound; cited from earlier work
rat [9] = conditions: cited from earlier work; remark: listed apart in the source
rat [10] = conditions: cited from earlier work; remark: listed apart in the source
human orexin-2 receptor = human orexin-2 receptor (Homo sapiens (Human), UniProt O43614); test: In vitro assay: intracellular calcium measurements (FLIPR), antagonistic activity; assay type: cell-based; conditions: CHO cells expressing human orexin-2 receptor, orexin-A agonist, geometric mean, read-out: IC50 Ox2
Outline: (§1)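 Dye-loaded CHO cells expressing either human orexin receptor are exposed to test antagonist for 120 min, then stimulated with orexin-A at 3 nM.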

human orexin-1 receptor = human orexin-1 receptor (Homo sapiens (Human), UniProt O43613); test: as above; assay type: cell-based; conditions: CHO cells expressing human orexin-1 receptor, orexin-A agonist, geometric mean, read-out: IC50 Ox1
Outline: as §1

Sequence of human orexin-1 receptor (O43613 whole entry): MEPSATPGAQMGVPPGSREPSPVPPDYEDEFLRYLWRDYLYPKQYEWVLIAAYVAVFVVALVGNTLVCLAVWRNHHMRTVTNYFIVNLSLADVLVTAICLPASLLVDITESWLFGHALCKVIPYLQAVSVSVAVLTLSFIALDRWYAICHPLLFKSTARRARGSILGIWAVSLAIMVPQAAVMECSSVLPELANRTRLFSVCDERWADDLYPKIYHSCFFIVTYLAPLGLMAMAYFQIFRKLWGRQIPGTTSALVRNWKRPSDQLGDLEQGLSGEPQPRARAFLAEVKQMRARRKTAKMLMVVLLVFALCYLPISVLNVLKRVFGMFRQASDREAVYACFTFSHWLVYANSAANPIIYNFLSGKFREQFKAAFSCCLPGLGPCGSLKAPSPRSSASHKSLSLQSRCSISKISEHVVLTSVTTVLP
Sequence of human orexin-2 receptor (O43614 whole entry): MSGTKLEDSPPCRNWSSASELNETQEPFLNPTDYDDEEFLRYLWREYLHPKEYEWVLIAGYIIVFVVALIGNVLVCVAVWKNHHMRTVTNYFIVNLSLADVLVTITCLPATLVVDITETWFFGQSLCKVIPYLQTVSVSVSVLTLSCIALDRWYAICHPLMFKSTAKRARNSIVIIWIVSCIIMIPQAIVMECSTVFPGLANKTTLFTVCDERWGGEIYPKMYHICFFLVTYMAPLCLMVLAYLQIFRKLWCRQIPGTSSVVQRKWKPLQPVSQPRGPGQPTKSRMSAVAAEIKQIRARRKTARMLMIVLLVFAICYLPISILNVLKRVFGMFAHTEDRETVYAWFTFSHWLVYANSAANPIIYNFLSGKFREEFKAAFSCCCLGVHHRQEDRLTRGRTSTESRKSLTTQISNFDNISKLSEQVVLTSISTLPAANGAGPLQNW

IC50 (human orexin-2 receptor) [nM] | IC50 (human orexin-1 receptor) [nM] | Structure (SMILES) | further results
– | – | Cn1c(SCC(=O)N2CCC[C@H]2C(=O)Nc2ccccc2-c2ccccc2)nc2ccccc21 [N-biphenyl-2-yl-1-{[(1-methyl-1H-benzimidazol-2-yl)sulfanyl]acetyl}-L-prolinamide] | nicotine-reinstatement for a conditioned reinforcer (rodents [1]): inhibited; behavioral (locomotor sensitization) and molecular (transcriptional responses) changes (rodents [2]): reduced
– | – | COc1ccc(-n2nccn2)c(C(=O)N2CCC[C@@]2(C)c2nc3c(C)c(Cl)ccc3[nH]2)c1 [Example 5.36] | effect on NREM sleep (Wistar rats): +27%; effect on REM sleep (Wistar rats): +53%; effect on active wake (Wistar rats): −24%; effect on home cage activity (Wistar rats): −31%; concentration of the compound in brain [B] [3]: 1808 ng/g; concentration of the compound in plasma [P] [3]: 1280 ng/mL
– | – | CNC(=O)[C@@H](c1ccccc1)N1CCc2cc(OC)c(OC)cc2[C@@H]1CCc1ccc(C(F)(F)F)cc1 [(2R)-2-{(1S)-6,7-dimethoxy-1-[2-(4-trifluoromethyl-phenyl)-ethyl]-3,4-dihydro-1H-isoquinolin-2-yl}-N-methyl-2-phenyl-acetamide] | pharmacological activity in nicotine self-administration (rat [4]): displayed pharmacological activity; brain levels of amyloid-beta and Aβ plaque deposition [5]: decreased; natural activation induced by orexin A (rats [6]): attenuate; clinical efficacy in primary insomnia (humans): showed clinical efficacy; antidepressant-like activity (mouse): induce antidepressant-like activity; cardiovascular responses to conditioned fear and novelty exposure (rats [7]): attenuated; learning and memory (rats [8]): intact declarative and non-declarative learning and memory; alertness (active wake and locomotion) (rat [9]): decrease alertness; time spent in both REM and NREM sleep (rat [9]): dose-dependently increase; activity in fear-potentiated startle paradigm (rat [10]): active
21 | 6 | Cc1ccc(-c2ncccn2)c(C(=O)N2CCC[C@@]2(C)c2nc3cc(Br)cc(C)c3[nH]2)c1 [Example 5.277] | effect on NREM sleep (Wistar rats): +21%; effect on REM sleep (Wistar rats): +52%; effect on active wake (Wistar rats): −22%; effect on home cage activity (Wistar rats): −42%; concentration of the compound in brain [B] [3]: 5880 ng/g; concentration of the compound in plasma [P] [3]: 3560 ng/mL
20 | 9 | Cc1ccc(-n2nccn2)c(C(=O)N2CCC[C@@]2(C)c2nc3cc(Br)cc(C)c3[nH]2)c1 [Example 5.19] | effect on NREM sleep (Wistar rats): +31%; effect on REM sleep (Wistar rats): +69%; effect on active wake (Wistar rats): −28%; effect on home cage activity (Wistar rats): −46%; concentration of the compound in brain [B] [3]: 3880 ng/g; concentration of the compound in plasma [P] [3]: 2095 ng/mL
1 | 4 | C=C1C[C@@H](c2nc3c(C)cc(C)cc3[nH]2)N(C(=O)c2nc(C)sc2-c2ccc(C)c(C)c2)C1 [Ex. 6.58] | –
10 | 44 | C=C1C[C@@H](c2nc3cc(Cl)c(C(F)(F)F)cc3[nH]2)N(C(=O)c2ccccc2-n2nccn2)C1 [Ex. 6.178] | –
3180 | 7 | Cc1nc(C(=O)N2CC[C@H](C)[C@H]2c2nc3cc(C(F)(F)F)ccc3[nH]2)c(-c2cc(F)cc(F)c2)s1 [Ex. 4.148] | –
134 | 15 | Cc1ccc(-n2nccn2)c(C(=O)N2CCC[C@@]2(C)c2nc3cc(F)c(Cl)cc3[nH]2)c1 [Ex. 5.12] | –
463 | 9 | Cc1ccc(-c2sccc2C(=O)N2CC[C@H](C)[C@H]2c2nc3cc(C(F)(F)F)ccc3[nH]2)cc1C [Ex. 4.144] | –
4350 | 50 | Cc1nc(C(=O)N2CC[C@H](C)[C@H]2c2nc3c(Cl)cccc3[nH]2)c(-c2ccc(F)cc2)s1 [Ex. 4.118] | –
308 | 2 | Cc1cccc(-c2sc(C)nc2C(=O)N2CC[C@H](C)[C@H]2c2nc3c(C(F)(F)F)cccc3[nH]2)c1 [Ex. 4.158] | –
4 | 5 | CO[C@H]1CN(C(=O)c2nc(C)sc2-c2cccc(Cl)c2)[C@](C)(c2nc3c(C)c(Cl)ccc3[nH]2)C1 [Ex. 3.31] | –
69 | 27 | COc1cc2nc([C@@H]3[C@@H](C)CCN3C(=O)c3cc(C)ccc3-c3ncccn3)[nH]c2cc1OC [Ex. 4.179] | –
538 | 367 | Cc1ccc(-c2ccc(C(F)(F)F)cc2)c(C(=O)N2CCC[C@@]2(C)c2nc3cc(C(F)(F)F)c(Cl)cc3[nH]2)c1 [Ex. 5.157] | –
52 | 154 | C=C1C[C@@H](c2nc3cc(OC)ccc3[nH]2)N(C(=O)c2nc(C3CC3)sc2-c2ccc(C)c(F)c2)C1 [Ex. 6.25] | –
19 | 1 | Cc1ccc(-c2sccc2C(=O)N2CC[C@H](C)[C@H]2c2nc3c(Cl)cccc3[nH]2)cc1C [Ex. 4.127] | –
6 | 7 | Cc1ccc(-n2nccn2)c(C(=O)N2CCC[C@@]2(C)c2nc3cc(Br)cc(C)c3n2C)c1 [Example 7.4, (S)-(2-(5-bromo-1,7-dimethyl-1H-benzo[d]imidazol-2-yl)-2-methylpyrrolidin-1-yl)(5-methyl-2-(2H-1,2,3-triazol-2-yl)phenyl)methanone] | –
1 | 3 | C=C1C[C@@H](c2nc3c(C)c(Cl)ccc3[nH]2)N(C(=O)c2nc(C)sc2-c2ccc(C)c(C)c2)C1 [Ex. 6.54] | –
9 | 143 | CSc1ccc2nc([C@@H]3CCCN3C(=O)c3cc(Cl)ccc3-n3nccn3)[nH]c2c1 [Ex. 1.149] | –
36 | 13 | Cc1c(Cl)ccc2[nH]c([C@]3(C)CCCN3C(=O)c3cc(F)ccc3-c3ccccc3)nc12 [Ex. 5.218] | –
26 | 26 | CSc1cccc2nc([C@@H]3CCCN3C(=O)c3nc(C4CC4)sc3-c3ccc(F)cc3)[nH]c12 [Ex. 1.70] | –
250 | 252 | CCOc1ccc(-c2ccc(C)cc2C(=O)N2CCC[C@@]2(C)c2nc3cc(C(F)(F)F)c(Cl)cc3[nH]2)cc1 [Ex. 5.162] | –
28 | 486 | CSc1ccc2[nH]c([C@@H]3CCCN3C(=O)c3c(-n4nccn4)ccc(C)c3F)nc2c1 [Ex. 1.179] | –
13 | 6 | CO[C@@H]1C[C@@H](c2nc3ccc(Cl)c(C)c3[nH]2)N(C(=O)c2ccccc2-c2ccc(C)c(C)c2)C1 [Ex. 3.38] | –
